Entries after “also recorded” stand apart in the source; their conditions may differ.
How the values were obtained:
[1] = tested on: R-catcher; test: R-catcher pulldown of putative arginylated ER proteins, HeLa; assay type: binding, human; settings: 5 µM MG132 plus 100 nM TG, RA competition, Fig. 6a
Method: For small-scale R-catcher pull-down assays, 300 µg of purified R-catcher was conjugated with 120 µl of Strep-Tactin sepharose resin by incubating overnight at 4 °C. To test R-catcher’s ability to capture known arginylated proteins, such as R-BiP, R-PDI, R-nsP4 and R-RGS4, plasmids encoding Ub-X-(BiP, PDI and nsP4) or MX-RGS4 (X = Arg or Val) were transiently transfected into HEK293 cells. After 24 h, cells were treated with 10 µM MG132 and 100 nM thapsigargin for another 24 h. Cells were harvested and lysed in hypotonic buffer and 300 µg total protein was incubate with 25 µl R-catcher-sepharose resin in binding buffer (20 mM HEPES pH 7.9, 0.05% Tween 20, 10% glycerol, 0.2 M KCl, protease inhibitor and phosphatase inhibitor) for 3 h with gentle rotation at 4 °C. After three washes with binding buffer, bound proteins were dissociated with 2 × SDS sample buffer and boiling at 100 °C and subjected to immunoblotting using anti-myc or flag antibodies.
Plasmids encoding the proteins were transiently transfected to HeLa cells for 24 h and stimulated with 5 µM MG132 plus 100 nM TG for another 24 h. Cell lysates were incubated with R-catcher immobilized on tactin beads for 3 h. After wash, bound proteins were eluted with 2 × SDS sample buffer followed by boiling at 100 °C for 10 min and visualized by western blot analysis. b R-catcher pulldown assays to validate ATE1-dependent arginylation of […]1, PRDX4, FBLN1 and CLUS. Plasmids encoding […]1, PRDX4, FBLN1 and CLUS were transiently transfected into + / + and ATE1^−/− MEFs for 24 h and stimulated with 5 µM MG132 plus 100 nM TG for another 9 h. Cell lysates were subjected to R-catcher pulldown, and bound proteins were detected by western blot analysis. c R-catcher pull-down assays to evaluate if the arginylation of FBNL1, SERPINH1, CLUS and PRDX4 is induced in response to MG132 plus thapsigargin. d X-peptide pulldown assays to confirm no interaction of R-catcher with Nt-Ala19 of SERPINH1 peptides and Nt-Trp38 of PRDX4 peptides. X-peptides where X is A19 (SignalP predicted P1’ site), E20 (next possible P1’ site predicted by PrediSi) or R19 (Arginylated form of Glu) for SERPINH1 and W38 (SignalP predicted P1’ site), E39 (next possible P1’ site predicted by PrediSi) or R38 (Arginylated form) for PRDX4. Biotinylated X-peptides immobilized on streptavidin agarose beads were incubated with affinity-purified GST-ZZ ([…]). Bound GST-ZZ (N132D) was detected by immunoblotting. e Identification of arginylated sites employing mutational analysis. Predicted P1’ sites of SERPINH1, PRDX4, CLUS and FBLN1 were substituted to Gly, and the inhibitory effect of the mutation on binding with R-catcher was examined by performing R-catcher pulldown assays

[2] = tested on: R-catcher; test: R-catcher pulldown in +/+ and ATE1-/- MEFs; assay type: binding; settings: +/+ versus ATE1-/- MEFs, MG132 plus TG, 9 h, Fig. 6b
Method: (§1) For small-scale R-catcher pull-down assays, 300 µg of purified R-catcher was conjugated with 120 µl of Strep-Tactin sepharose resin by incubating overnight at 4 °C. To test R-catcher’s ability to capture known arginylated proteins, such as R-BiP, R-PDI, R-nsP4 and R-RGS4, plasmids encoding Ub-X-(BiP, PDI and nsP4) or MX-RGS4 (X = Arg or Val) were transiently transfected into HEK293 cells. After 24 h, cells were treated with 10 µM MG132 and 100 nM thapsigargin for another 24 h. […]
(§2) Plasmids encoding the proteins were transiently transfected to HeLa cells for 24 h and stimulated with 5 µM MG132 plus 100 nM TG for another 24 h. […] Cell lysates were subjected to R-catcher pulldown, and bound proteins were detected by western blot analysis. c R-catcher pull-down assays to evaluate if the arginylation of FBNL1, SERPINH1, CLUS and PRDX4 is induced in response to MG132 plus thapsigargin. d X-peptide pulldown assays to confirm no interaction of R-catcher with Nt-Ala19 of SERPINH1 peptides and Nt-Trp38 of PRDX4 peptides. […] Bound GST-ZZ (N132D) was detected by immunoblotting. e Identification of arginylated sites employing mutational analysis. […]

[3] = tested on: R-catcher; test: R-catcher pulldown of P1' site Gly mutants; assay type: binding, human; settings: E20 SERPINH1, E30 (printed) PRDX4, D23 CLUS, D30 FBLN1 to Gly, Fig. 6e
Method: as §1, §2

[4] = Identification of arginylation sites, GelNrich and in-gel digestion LC-MS/MS
Text: Upon separation of the immunoprecipitated protein by SDS-PAGE and staining with Coomassie Blue, the corresponding protein band was excised, half of which was subjected to GelNrich and the other half to conventional in-gel digestion GelNrich is an N-terminal peptide enrichment method based on in-gel digestion. The method includes in-gel protein level labeling of primary amines using d6-acetic anhydride and post-digestion negative selection of labeled N-terminal peptide(s) using N-hydroxysuccinimide activated agarose beads. Peptides recovered from GelNrich or in-gel digestion were dried in a vacuum evaporator and reconstituted in 0.1% formic acid. An aliquot was injected from a cooled (10 °C) auto-sampler into a reversed-phase EASY-Spray column (25 cm × 75 μm, Thermo Fisher Scientific) on an Eksigent nanoLC-ultra 1D plus system (Danaher Corporation) at a flow rate of 300 nL/min. Prior to use, the column was equilibrated with 96% buffer A (0.1% formic acid in water) and 4% buffer B (0.1% formic acid in acetonitrile). The peptides were eluted with a linear gradient from 4 to 35% buffer B over 60 min and 35–80% buffer B over 2 min followed by an organic wash and aqueous re-equilibration at a flow rate of 300 nL/min with a total run time of 96 min. The HPLC system was coupled to a Q-Exactive mass spectrometer (Thermo Fisher Scientific) operated in a data-dependent acquisition (DDA) mode. […]

[5] = tested on: GST-ZZ122-175^N132D; test: GST-ZZ122-175^N132D pulldown from HeLa lysates (MG132 plus TG); assay type: binding, human; settings: HeLa lysate, immunoblot
Text: Using these lysates and purified GST tagged ZZ122-175^N132D (Supplementary Fig. 4A) immobilized on glutathione resin, we performed pulldown assays. […] In addition to pulling down R-BiP and R-CRT, GST-ZZ122-175^N132D was able to capture polyubiquitinated proteins, which were also disrupted by the D129A mutation and RA dipeptide competition (Supplementary Fig. 4B). This was expected because arginylated proteins are known to be ubiquitinated by E3 ligases containing a UBR box leading to their proteasomal degradation.
Fig. 4 ZZ122-175 ^N132D is capable of capturing known arginylated proteins in cells. a Western blot analysis to visualize arginylated BiP and CRT. […] N-terminally arginylated BiP and CRT were detected by immunoblotting using anti R-BiP and R-CRT antibodies. b GST pulldown assays to test the ability of wild type (WT) and N132D GST-ZZ in capturing cellular R-BiP and R-CRT. […] Pulled down R-BiP and R-CRT were detected using anti R-BiP and R-CRT antibodies. c Schematic drawing illustrating R-catcher. […] R-catcher bound arginylated proteins were detected by immunoblotting using anti-Myc or Flag antibody. e R-catcher pulldown assay to capture R-BiP and R-CRT induced in HeLa cells stimulated with MG132 plus TG in the absence or presence of 20 mM dipeptides TEXT PRINTED IN THE PICTURE: (C) R-catcher: ~ 9 kDa

Row | Substance | binding with R-catcher, Nt-Arg dependence [1] | capture by R-catcher, ATE1 dependence [2] | effect of Gly substitution of P1' site on interaction with R-catcher [3] | arginylation detected by mass spectrometry [4] | pulldown by GST-ZZ122-175^N132D [5]
1 | CLU: clusterin | Nt-Arg-dependent binding with R-catcher | captured by R-catcher in an ATE1-dependent manner | significantly impaired their interaction with R-catcher; also recorded: abolished their binding with R-catcher | arginylation at the D23 residue | 
2 | R-BiP: Nt-arginylated BiP | bound R-catcher in an Nt-Arg-dependent manner |  |  |  | efficiently pull down

Reference: PMC8038991, “R-catcher, a potent molecular tool to unveil the arginylome” (Cellular and Molecular Life Sciences: CMLS, 2021)
